The record followed here is publication PMC12155096 (International Journal of Molecular Sciences, 2025).

Where a name gives a salt, the structure may show the parent alone. Read-outs that look alike come from different tables or passages of the source.

Data set [1] deals with T1, human CYP2C19 (Homo sapiens, UniProt P33261).
The target in data set [2] is T2, human CYP2C9 (Homo sapiens, UniProt P11712).
Another data set has as its target human CYP2D6 (Homo sapiens, UniProt P10635).
Data set [3] deals with T3, human CYP1A2 (Homo sapiens, UniProt P05177).
T3 sequence (P05177 1-516): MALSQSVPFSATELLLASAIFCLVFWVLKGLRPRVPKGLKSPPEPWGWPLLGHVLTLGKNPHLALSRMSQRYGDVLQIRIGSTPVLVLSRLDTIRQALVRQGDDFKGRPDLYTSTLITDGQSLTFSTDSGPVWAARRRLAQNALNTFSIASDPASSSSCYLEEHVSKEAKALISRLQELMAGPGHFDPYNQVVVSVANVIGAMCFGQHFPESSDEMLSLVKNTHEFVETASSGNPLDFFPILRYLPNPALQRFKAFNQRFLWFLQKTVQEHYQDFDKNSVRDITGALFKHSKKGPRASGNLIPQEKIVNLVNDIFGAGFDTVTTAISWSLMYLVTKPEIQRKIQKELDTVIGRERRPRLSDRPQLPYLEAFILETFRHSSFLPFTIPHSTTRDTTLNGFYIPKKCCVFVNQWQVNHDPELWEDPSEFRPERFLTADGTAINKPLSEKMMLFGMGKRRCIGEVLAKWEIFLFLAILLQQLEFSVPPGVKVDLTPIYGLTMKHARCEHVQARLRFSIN
In words: biochemical. The following applies: for AC50: CYP1A2 AC50 (half-maximal activity concentration).

In data set [4] the target is T2, human CYP2C9. The data set can be described thus: biochemical. The following applies: for AC50: CYP2C9 AC50 (half-maximal activity concentration).
For data set [5], the target named is T1, human CYP2C19. The data set can be described thus: biochemical. The following applies: for AC50: CYP2C19 AC50 (half-maximal activity concentration).
The target in data set [6] is T3, human CYP1A2.
[7] abbreviates: CYP2C9 IC50 (half-maximal inhibitory concentration).

human CYP2D6, sequence (P10635 whole entry): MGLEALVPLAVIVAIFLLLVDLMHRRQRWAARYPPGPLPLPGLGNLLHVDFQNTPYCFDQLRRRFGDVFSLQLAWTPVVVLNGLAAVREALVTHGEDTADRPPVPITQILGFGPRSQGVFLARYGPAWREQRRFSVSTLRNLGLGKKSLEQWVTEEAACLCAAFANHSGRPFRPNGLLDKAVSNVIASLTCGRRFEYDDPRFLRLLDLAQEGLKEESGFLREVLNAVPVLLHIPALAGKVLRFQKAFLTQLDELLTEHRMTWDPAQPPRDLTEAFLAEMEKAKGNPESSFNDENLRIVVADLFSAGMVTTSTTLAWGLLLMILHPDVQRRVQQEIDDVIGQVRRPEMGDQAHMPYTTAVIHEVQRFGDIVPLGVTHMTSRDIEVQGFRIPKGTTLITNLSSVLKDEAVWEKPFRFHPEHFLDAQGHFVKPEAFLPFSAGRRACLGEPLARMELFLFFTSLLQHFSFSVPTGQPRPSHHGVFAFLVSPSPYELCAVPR
T1 sequence (P33261 whole entry): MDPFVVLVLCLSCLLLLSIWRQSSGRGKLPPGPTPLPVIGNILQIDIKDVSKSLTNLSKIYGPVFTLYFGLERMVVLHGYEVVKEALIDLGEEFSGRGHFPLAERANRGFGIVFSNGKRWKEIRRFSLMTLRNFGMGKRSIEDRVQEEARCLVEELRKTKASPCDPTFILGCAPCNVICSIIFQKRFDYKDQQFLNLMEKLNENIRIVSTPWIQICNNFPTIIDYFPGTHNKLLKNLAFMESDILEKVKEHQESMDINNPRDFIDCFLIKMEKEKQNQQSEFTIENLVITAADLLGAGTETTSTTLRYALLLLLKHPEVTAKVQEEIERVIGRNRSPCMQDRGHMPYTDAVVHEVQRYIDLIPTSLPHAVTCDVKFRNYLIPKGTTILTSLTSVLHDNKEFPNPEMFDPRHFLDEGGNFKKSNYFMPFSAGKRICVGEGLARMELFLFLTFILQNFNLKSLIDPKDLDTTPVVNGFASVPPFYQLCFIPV
T2 sequence (P11712 whole entry): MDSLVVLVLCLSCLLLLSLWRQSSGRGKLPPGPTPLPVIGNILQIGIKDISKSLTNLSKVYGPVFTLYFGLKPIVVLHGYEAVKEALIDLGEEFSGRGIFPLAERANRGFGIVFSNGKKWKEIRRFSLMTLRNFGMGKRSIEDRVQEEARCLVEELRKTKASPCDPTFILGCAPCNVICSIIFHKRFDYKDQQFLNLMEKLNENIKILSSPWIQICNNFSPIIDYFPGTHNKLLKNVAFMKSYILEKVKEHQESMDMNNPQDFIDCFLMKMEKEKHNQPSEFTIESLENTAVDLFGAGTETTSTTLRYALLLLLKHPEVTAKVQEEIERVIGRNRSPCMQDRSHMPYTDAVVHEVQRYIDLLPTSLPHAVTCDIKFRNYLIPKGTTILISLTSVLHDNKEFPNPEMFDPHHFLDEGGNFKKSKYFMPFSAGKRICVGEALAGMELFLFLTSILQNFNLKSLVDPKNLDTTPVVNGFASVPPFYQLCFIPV

The IC50 is the concentration that gives 50% inhibition. Low readings indicate greater potency in that assay, high ones weaker potency in that assay. Regarding `CCC(OC(C)=O)C(CC(C)NC)(c1ccccc1)c1ccccc1.Cl` (centres unmarked), at human CYP2C19 [1], the “CYP2C19 Efficacy (in parenthesis)” value was 21.99 ± 10.33 (-95 ± 7) % and inhibition was half-maximal at 22 µM (IC50). Further, on human CYP2C9 [2], the “CYP2C9 Efficacy (in parenthesis)” value is 63.02 ± 38.37 (-35 ± 6) % and the IC50 is 63 µM. In addition, at human CYP2D6, the “CYP2D6 Efficacy (in parenthesis)” value was 15.52 ± 2.14 (-95 ± 2) % and 15.5 µM corresponded to half-maximal inhibition (IC50).

The AC50 is the midpoint of the concentration-response curve, whichever way the signal moves. A high value points to weaker potency. On to `Brc1ccccc1-c1ccccc1` [2-Bromobiphenyl], for which the AC50 on human CYP1A2 [3] worked out at 17 µM.

As to `COc1c2occc2cc2ccc(=O)oc12` [8-Methoxypsoralen], the “CYP2C19 Efficacy (in parenthesis)” value on human CYP2C19 [1] (human) is 12.67 ± 4.61 (-156 ± 24) %. Inhibition against human CYP2C9 [4] (setting [7]) was half-maximal at 7.56 µM (IC50). The “CYP2C9 Efficacy (in parenthesis)” value at human CYP2C9 [2] (human) is given as 7.56 ± 2.14 (-95 ± 11) %. Further, the “CYP2D6 Efficacy (in parenthesis)” value on human CYP2D6 (human) was 7.42 ± 0.95 (-106 ± 2) %.

Consider `CCC(=O)O[C@]1(C(=O)COC)[C@@H](C)C[C@H]2[C@@H]3CCC4=CC(=O)C=C[C@]4(C)[C@@]3(F)[C@@H](O)C[C@@]21C` [Amelometasone], for which the results for the IC50 at human CYP2C19 [1], against human CYP2C9 [2] and at human CYP2D6 were 43.6 µM, 26 µM and 19.5 µM, respectively.

For the compound `O=C(Nc1ccc(S(=O)(=O)N2CCOCC2)cc1)c1cc(Cl)ccc1NS(=O)(=O)c1ccc(Cl)s1` [Ataciguat], the “CYP2C19 Efficacy (in parenthesis)” value on human CYP2C19 [1] (human) was 41.28 ± 3.36 (-131 ± 15) %. The figures for the IC50 at human CYP2C9 [4] and against human CYP2C19 [5] were 0.05 ± 0.01 µM and 41.3 ± 3.36 µM, respectively. The “CYP2C9 Efficacy (in parenthesis)” value on human CYP2C9 [2] (human) is given as 0.05 ± 0.01 (-98 ± 7) %.

Consider `CCc1oc2ccccc2c1C(=O)c1cc(Br)c(O)c(Br)c1` [Benzbromarone], for which the concentration at half-maximal activity (AC50) on human CYP1A2 [3] was found to be 28.9 µM.

As for `O=C(c1ccccc1)c1ccccc1` [Benzophenone], the concentration at half-maximal activity (AC50) on human CYP2C9 [4] stood at 28.4 µM; on human CYP1A2 [3] it was 13.7 µM.

Regarding `O=C1c2ccccc2C(=O)C1C(=O)C(c1ccccc1)c1ccc(Cl)cc1` (centres unmarked) [Cholorophacinone], half-maximal inhibition against human CYP2C9 [2] (IC50) was put at 0.9 µM.

With `CCOC(=O)c1ccccc1C(=O)OCC` [Diethyl phthalate], the concentration at half-maximal activity (AC50) at human CYP1A2 [3] was determined as 3.24 µM.

As to `CC(C)OC(=O)C(C)(C)Oc1ccc(C(=O)c2ccc(Cl)cc2)cc1` [Fenofibrate], the AC50 at human CYP2C9 [4] came out at 3.17 µM; at human CYP1A2 [3], 19.9 µM.

As to `O=C(O)Cc1sc(-c2ccccc2)nc1-c1ccc(Cl)cc1` [Fentiazac], the values for the AC50 at human CYP2C9 [4] and at human CYP1A2 [3] were 6.24 µM and 24 µM, respectively.

As for `CN1CC[C@]23c4c5ccc(O)c4O[C@H]2[C@@H](O)C=C[C@H]3[C@H]1C5` [Morphine sulfate pentahydrate], at human CYP2C19 [1], the “CYP2C19 AC50 (half-maximal activity concentration)” value was “Inactive”. In addition, the “CYP1A2 AC50 (half-maximal activity concentration)” value at human CYP1A2 [6] is given as “Inactive”. In addition, at human CYP2C9 [2], the “CYP2C9 AC50 (half-maximal activity concentration)” value was “Inactive”.

The compound `Cc1ccccc1C(=O)Nc1ccc(C(=O)N2CCCC(N(C)C)c3ccccc32)cc1` (centres unmarked) [Mozavaptan] displayed a concentration for half-maximal inhibition (IC50) at human CYP2C9 [4] (setting [7]) of 26 µM. For the same compound, the “CYP2C9 Efficacy (in parenthesis)” value on human CYP2C9 [2] (human) is given as 26.02 ± 12.23 (-35 ± 0) %.

`CN1C(CSCC(F)(F)F)Nc2cc(Cl)c(S(N)(=O)=O)cc2S1(=O)=O` (centres unmarked) [Polythiazide]: the concentration at half-maximal activity (AC50) is 14.9 µM on human CYP2C9 [4] and 22 µM on human CYP2C19 [5].

Take `CCCc1ccc(OCC(=O)N2CCN(C(=O)COc3ccc(CCC)cc3OC)CC2)c(OC)c1` [Simetride]: the half-maximal inhibitory concentration (IC50) on human CYP2C9 [4] was 6.41 ± 6.45 µM; at human CYP2C19 [5], 17 ± 19.1 µM.

Turning to `CCC(=O)O[C@H]1CC[C@H]2[C@@H]3CCC4=CC(=O)CC[C@]4(C)[C@H]3CC[C@]12C` [Testosterone propionate], the AC50 on human CYP2C9 [4] was 30.9 µM; on human CYP2C19 [5], 26 µM.

On to `CC1(C)C(C=C(Cl)Cl)C1C(=O)OC(C#N)c1cccc(Oc2ccccc2)c1` (stereo not drawn) [alpha-Cypermethrin], for which the figures for the AC50 on human CYP2C9 [4] and at human CYP2C19 [5] were 3.56 µM and 6.44 µM, respectively.

`Fc1ccc([C@@H]2CCNC[C@H]2COc2ccc3c(c2)OCO3)cc1` [paroxetine, reference compound] gave an IC50 against human CYP1A2 [3] (CYP1A2 IC50 (half-maximal inhibitory concentration)) of 15.2 µM.

On human CYP1A2 [3] (IC50 CYP1A2 assay), `c1ccc2[nH]c(-c3cscn3)nc2c1` [thiabendazole, reference compound] gave an IC50 of 2.1 µM.

The compound `CC(c1cc2ccccc2s1)N(O)C(N)=O` (centres unmarked) [zileuton, reference compound] showed an IC50 against human CYP1A2 [3] of 5.3 µM.

For Cresyl diphenyl phosphate, the half-maximal activity concentration (AC50) at human CYP2C19 [1] was found to be 4.18 µM; on human CYP1A2 [6], 8.9 µM; on human CYP2C9 [2], 6.19 µM. Also, the “CYP2D6 AC50 (half-maximal activity concentration)” value at human CYP2D6 was “Inactive”.
